ChEMBL document CHEMBL3885861, “Open TG-GATES”

Species: Rattus norvegicus
Experiment: Open TG-GATES - Regimen: Single
Assay type: toxicity, organism-based, Sprague-Dawley
Design: regimen Single, gender Male, age 6 weeks
Conditions: in vivo, po, route gavage; for APTT / Bas / Eos / Fbg / Hb / Ht / Lym / MCH / MCHC / MCV / Mono / Neu / PT / Plat / RBC / WBC: tissue Blood; for KIDNEY_L / KIDNEY_R / KIDNEY_TOTAL: tissue Kidney; for LIVER: tissue Liver; for ALT / AST / CRE / Cl / DBIL / GLC / IP / LDH / Na / RALB / TBIL / TC / TG / TP / gamma-GTP / BUN: tissue Plasma
[1] = 0 mg/kg, 3 h, dose level Control
[2] = 0 mg/kg, 6 h, dose level Control
[3] = 0 mg/kg, 9 h, dose level Control
[4] = 0 mg/kg, 24 h, dose level Control

Work on `CC/C(=C(\c1ccccc1)c1ccc(OCCN(C)C)cc1)c1ccccc1` [TAMOXIFEN] yielded a TERMINAL_BW [1] of 194.3 g, an APTT [1] of 16.9 s and a Bas [1] of 0%. The Eos [1] was 0.8%, the Fbg [1] was 248.6 mg/dL and the Hb [1] was 13 g/dL. The Ht [1] was 39.1%, the Lym [1] was 76% and the MCH [1] was 21.6 pg. It also gave an MCHC [1] of 33.2%, an MCV [1] of 65.1 fL and a Mono [1] of 3.6%. The Neu [1] was 19.2%, the PT [1] was 12.2 s and the Plat [1] was 123.1 x10_4/uL. It also gave an RBC [1] of 601.8 x10_4/ul, a WBC [1] of 87.4 x10_2/uL and a KIDNEY_L [1] of 0.9 g. The KIDNEY_R [1] was 0.8 g, the KIDNEY_TOTAL [1] was 1.7 g and the LIVER [1] was 8.3 g. The ALT [1] was 47.6 IU/L, the AST [1] was 77.6 IU/L and the CRE [1] was 0.2 mg/dL. For the same molecule, the Cl [1] was 106.8 meq/L, the DBIL [1] was 0.02 mg/dL and the GLC [1] was 173.6 mg/dL. It also gave an IP [1] of 10.2 mg/dL, an LDH [1] of 69.6 IU/L and a Na [1] of 140.8 meq/L. For the same molecule, the RALB [1] was 2.6 g/dL, the TBIL [1] was 0.042 mg/dL and the TC [1] was 86.4 mg/dL. It also gave a TG [1] of 94.6 mg/dL, a TP [1] of 5.6 g/dL and a gamma-GTP [1] of 1.4 IU/L. The TERMINAL_BW [2] was 192.7 g, the APTT [2] was 16.1 s and the Bas [2] was 0%. It also gave an Eos [2] of 1%, a Fbg [2] of 261.5 mg/dL and a Hb [2] of 13.2 g/dL. It also gave a Ht [2] of 39.6%, a Lym [2] of 69.8% and an MCH [2] of 21.8 pg. For the same molecule, the MCHC [2] was 33.4%, the MCV [2] was 65.3 fL and the Mono [2] was 3.2%. It also gave a Neu [2] of 25.8%, a PT [2] of 12.1 s and a Plat [2] of 118.7 x10_4/uL. It also gave an RBC [2] of 607 x10_4/ul, a WBC [2] of 64.1 x10_2/uL and a KIDNEY_L [2] of 0.8 g. For the same molecule, the KIDNEY_R [2] was 0.8 g, the KIDNEY_TOTAL [2] was 1.7 g and the LIVER [2] was 7.8 g. The ALT [2] was 37.8 IU/L, the AST [2] was 73 IU/L and the BUN [2] was 9.8 mg/dL. It also gave a CRE [2] of 0.2 mg/dL, a Cl [2] of 110.2 meq/L and a DBIL [2] of 0.015 mg/dL. For the same molecule, the GLC [2] was 171.2 mg/dL, the IP [2] was 10 mg/dL and the LDH [2] was 52.2 IU/L. For the same molecule, the Na [2] was 142.2 meq/L, the RALB [2] was 2.6 g/dL and the TBIL [2] was 0.0425 mg/dL. The TC [2] was 86.5 mg/dL, the TG [2] was 59 mg/dL and the TP [2] was 5.4 g/dL. For the same molecule, the gamma-GTP [2] was 1 IU/L, the TERMINAL_BW [3] was 194.3 g and the APTT [3] was 16.5 s. It also gave a Bas [3] of 0%, an Eos [3] of 1% and a Fbg [3] of 259.6 mg/dL. It also gave a Hb [3] of 12.8 g/dL, a Ht [3] of 38.4% and a Lym [3] of 75.2%. The MCHC [3] was 33.4%, the MCV [3] was 64 fL and the Mono [3] was 3%. For the same molecule, the PT [3] was 12.2 s, the Plat [3] was 111.1 x10_4/uL and the RBC [3] was 599.4 x10_4/ul. It also gave a WBC [3] of 73.7 x10_2/uL, a KIDNEY_L [3] of 0.8 g and a KIDNEY_R [3] of 0.8 g. For the same molecule, the KIDNEY_TOTAL [3] was 1.6 g, the LIVER [3] was 7.1 g and the ALT [3] was 42.4 IU/L. For the same molecule, the AST [3] was 71.8 IU/L, the BUN [3] was 10.2 mg/dL and the CRE [3] was 0.2 mg/dL. The Cl [3] was 107.2 meq/L, the DBIL [3] was 0.012 mg/dL and the GLC [3] was 184.6 mg/dL. For the same molecule, the LDH [3] was 50 IU/L, the Na [3] was 142.8 meq/L and the RALB [3] was 2.5 g/dL. The TBIL [3] was 0.05 mg/dL, the TC [3] was 84.6 mg/dL and the TG [3] was 37.4 mg/dL. For the same molecule, the TP [3] was 5.3 g/dL, the gamma-GTP [3] was 1.6 IU/L and the TERMINAL_BW [4] was 200.5 g. It also gave an APTT [4] of 15.5 s, a Bas [4] of 0% and an Eos [4] of 1%. For the same molecule, the Fbg [4] was 258.4 mg/dL, the Hb [4] was 13 g/dL and the Ht [4] was 38.9%. The Lym [4] was 70.6%, the MCH [4] was 21.5 pg and the MCHC [4] was 33.5%. For the same molecule, the MCV [4] was 64.2 fL, the Mono [4] was 4% and the Neu [4] was 24%. It also gave a PT [4] of 12.3 s, a Plat [4] of 116.6 x10_4/uL and an RBC [4] of 605.8 x10_4/ul. The WBC [4] was 89.9 x10_2/uL, the KIDNEY_L [4] was 0.9 g and the KIDNEY_R [4] was 0.9 g. For the same molecule, the KIDNEY_TOTAL [4] was 1.8 g, the LIVER [4] was 9.1 g and the ALT [4] was 51.8 IU/L. The AST [4] was 76.2 IU/L, the BUN [4] was 14.6 mg/dL and the CRE [4] was 0.2 mg/dL. For the same molecule, the Cl [4] was 107.2 meq/L, the DBIL [4] was 0.012 mg/dL and the GLC [4] was 183.8 mg/dL. The IP [4] was 7.8 mg/dL, the LDH [4] was 69 IU/L and the Na [4] was 142.4 meq/L. For the same molecule, the RALB [4] was 2.6 g/dL, the TBIL [4] was 0.034 mg/dL and the TC [4] was 93.2 mg/dL. It also gave a TG [4] of 83 mg/dL, a TP [4] of 5.5 g/dL and a gamma-GTP [4] of 1 IU/L. For the same molecule, the TERMINAL_BW (6 mg/kg, 3 h, dose level Low) was 191.8 g.
